Results as given in patent US8802664B2 (Bioproject, priority 2010, dated 2014).
Read-outs that look alike come from different tables or passages of the source.

Molecular target: T1, human H4 receptor (Homo sapiens, UniProt Q9H3N8)
T1 construct: expressed in transfected cells
Experiment: [3H]Histamine binding on membranes of CHO cells stably expressing human H4 receptor
Procedure, shortened: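 CHO-hH4 membranes 20 μg/well; buffer 50 mM Tris/HCl, 0.5 mM EDTA, pH 7.4; NSB: 10 μM JNJ 7777120 (BP1.2404); GF/B filtration (PEI-presoaked), 3 ice-cold washes; scintillation counting.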

T1 sequence (Q9H3N8 whole entry): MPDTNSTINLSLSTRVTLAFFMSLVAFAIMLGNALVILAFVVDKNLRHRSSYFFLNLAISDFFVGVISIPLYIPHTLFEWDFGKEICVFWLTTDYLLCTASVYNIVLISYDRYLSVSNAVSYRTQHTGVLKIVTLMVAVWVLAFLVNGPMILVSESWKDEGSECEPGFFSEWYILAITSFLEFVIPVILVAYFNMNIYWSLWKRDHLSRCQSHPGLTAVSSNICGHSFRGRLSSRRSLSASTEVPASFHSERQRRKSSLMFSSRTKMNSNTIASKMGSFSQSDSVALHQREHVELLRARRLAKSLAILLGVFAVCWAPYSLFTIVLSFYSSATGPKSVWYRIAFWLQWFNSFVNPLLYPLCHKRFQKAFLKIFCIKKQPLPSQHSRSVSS

| Structure (SMILES) | Ki or IC50 activity class [nM] | Ki or IC50 activity class (human H4 receptor, evaluated in the GTPγ[35S] assay or in the [3H]histamine binding assay (not stated which per compound), Ki or IC50 class) [nM] |
| --- | --- | --- |
| CN1CCC(OC(c2cccc(C#CCCCn3nccn3)c2)c2nc3ccccc3[nH]2)CC1 (stereo not shown) [Example 416, 2-{(1-methylpiperidin-4-yloxy)[3-(5-[1,2,3]triazol-2-yl-pent-1-ynyl)phenyl]methyl}-1H-benzimidazole] | < 300 |  |
| CN1CCC(NC(c2cccc(-c3ccccc3)c2)c2nc3ccccc3s2)CC1 (stereo not shown) [Example 102, (benzothiazol-2-ylbiphenyl-3-ylmethyl)(1-methylpiperidin-4-yl)amine] | < 30 |  |
| CN1CCC(OC(c2cccc(CCCN)c2)c2nc3ccccc3[nH]2)CC1 (stereo not shown) [Example 303, 3-{3-[(1H-benzimidazol-2-yl)(1-methylpiperidin-4-yloxy)methyl]phenyl}propylamine] | < 300 |  |
| CN1CCC(OC(c2nc3ccccc3[nH]2)c2cc(C#CCCCCN)ccc2F)CC1 (stereo not shown) [Example 557, 6-{3-[(1H-benzimidazol-2-yl)(1-methylpiperidin-4-yloxy)methyl]-4-fluorophenyl}hex-5-ynylamine] | < 30 |  |
| CN1CCC(OC(c2cccc(N3CCC(O)C3)c2)c2nc3ccccc3s2)CC1 (stereo not shown) [Example 407, 1-{3-[benzothiazol-2-yl(1-methylpiperidin-4-yloxy)methyl]phenyl}pyrrolidin-3-ol] |  | < 30 |
| CN1CCC(OC(c2cccc(SCc3ccco3)c2)c2nc3ccccc3[nH]2)CC1 (stereo not shown) [Example 173, 2-[[3-(furan-2-ylmethylsulfanyl)phenyl](1-methylpiperidin-4-yloxy)methyl]-1H-benzimidazole] | < 300 |  |
| CN1CCC(OC(c2cccc(OCC=CCN)c2)c2nc3ccccc3s2)CC1 (stereo not shown) [Example 431, 4-{3-[benzothiazol-2-yl(1-methylpiperidin-4-yloxy)methyl]phenoxy}but-2-enylamine] | < 30 |  |
| Cc1ccc(C(OC2CCN(C)CC2)c2nc3ccccc3s2)cc1 (stereo not shown) [Example 7, 2-[(1-methylpiperidin-4-yloxy)-p-tolylmethyl]benzothiazole] | < 300 |  |
| CN1CCC(OC(c2cccc(SCCCO)c2)c2nc3ccccc3s2)CC1 (stereo not shown) [Example 254, 3-{3-[benzothiazol-2-yl(1-methylpiperidin-4-yloxy)methyl]phenylsulfanyl}propan-1-ol] | < 30 |  |
| CN1CCC(OC(c2cccc(SCCCCN)c2)c2nc3ccccc3[nH]2)CC1 (stereo not shown) [Example 326, 4-{3-[(1H-benzimidazol-2-yl)(1-methylpiperidin-4-yloxy)methyl]phenylsulfanyl}butylamine] | < 30 |  |
| Cc1ccc(C(OC2CCN(C)CC2)c2nc3ccccc3o2)c(F)c1 (stereo not shown) [Example 545] | < 300 |  |
| CN1CCC(OC(c2cccc(CCC3CCNCC3)c2)c2nc3ccccc3[nH]2)CC1 (stereo not shown) [Example 396, 2-{(1-methylpiperidin-4-yloxy)[3-(2-piperidin-4-yl-ethyl)phenyl]methyl}-1H-benzimidazole] | < 1000 |  |
| CN1CCC(OC(c2cccc(OC(F)(F)F)c2)c2nc3ccccc3[nH]2)CC1 (stereo not shown) [Example 280, 2-[(1-methylpiperidin-4-yloxy)(3-trifluoromethoxy-phenyl)methyl]-1H-benzimidazole] | < 300 |  |
| CN1CCC(OC(c2cccc(SCCO)c2)c2nc3ccccc3s2)CC1 (stereo not shown) [Example 158, 2-{3-[benzothiazol-2-yl(1-methylpiperidin-4-yloxy)methyl]phenylsulfanyl}ethanol] | < 30 |  |
| CC(=O)NC1CCN(c2cccc(C(OC3CCN(C)CC3)c3nc4ccccc4s3)c2)C1 (stereo not shown) [Example 408, N-(1-{3-[benzothiazol-2-yl(1-methylpiperidin-4-yloxy)methyl]phenyl}pyrrolidin-3-yl)acetamide] | < 300 |  |
| CN1CCC(NC(c2cccc(OCCCC3(C)OCCO3)c2)c2nc3ccccc3[nH]2)CC1 (stereo not shown) [Example 174, ((1H-benzimidazol-2-yl)-{3-[3-(2-methyl-[1,3]dioxolan-2-yl)-propoxy]phenyl}methyl)(1-methylpiperidin-4-yl)amine] | < 300 |  |
